One substance from patent US12492403B2, “Aptamers and the use thereof in the treatment of cancer” (FUNDACIÓN PARA LA INVESTIGACIÓN BIOMÉDICA DEL HOSPITAL …, priority 2018, dated 2025) can be followed below.

The subject of data set [1] is 4T1 cells. In words: Transwell invasion assay in 4T1 cells. Format: cell-based, mouse. To be noted: 500 nM, 48 h invasion. The protocol:
FIG. 21A-21E. In vivo efficacy of apMNKQ2 in a mouse metastatic model with an orthotopic xenograft of 4T1 cells. (A) Effect of apMNKQ2 aptamer on the proliferation of 4T1 cells (mouse breast tumor line). 4T1 cells were seeded in p96 at a density of 1.5×10^3 cells/well. […] The graph (FIG. 21A) represents the means±SEM of 3 independent experiments. (B) Effect of apMNKQ2 aptamer on migration and invasion of 4T1 cells. Cells were seeded in p6 at a density of 2×10^5 cells/well and transfected with 500 nM apMNKQ2 at 24 hours. […] At 24 hours (migration) or 48 h (invasion), the transwell membranes were stained with Hoechst and the cells that had passed through the fluorescence microscopy were quantified. […] The number of metastases is analyzed by the reverse staining method (with Chinese ink) and the metastases grouped according to their size in four groups (0.5, 1, 2 and >2). […]
Cell migration and invasion assays were performed using transwell (Corning, USA). […] After that time, they were collected, counted, and reseeded 4×10^4 cells in 300 μl of a serum-free complete medium inside the transwell (migration) or a transwell on which a layer of 100 μL of Matrigel (Corning, USA) (invasion) had previously been polymerized. […] Finally, two washes in PBS were performed, and 5 photographs of each membrane of the transwell were taken using a fluorescence microscope (Olympus IX70). […]

The subject of data set [2] is MDA-MB-231 cells. The data set is described as follows: MTT activity assay, aptamers transfected with Lipofectamine 2000. Format: cell-based, human. The protocol:
(§1) FIG. 3. Effect of the aptamers on MTT activity of MCF7 and MDA-MB-231 cells. The cells were seeded in 96-well plates at a density of 10^4 cells/well. After 16-24 hours, they were transfected with aptamers apMNKQ1, apMNKQ2, apMNKQ3, and apMNKQ4 at 250 nM for 48 hours after which MTT activity assays were performed. The bars represent the mean±SEM of 3-6 independent experiments (*p<0.05, **p<0.01, and ***p<0.001 with respect to the control aptamer AT).
(§2) FIGS. 8A-8C. Effect of aptamer apMNKQ2 on MTT activity of breast cell lines. MCF7, MDA-MB-231, and MDA-MB-468 cells were seeded in 96-well plates at a density of 10^4 cells/well. […] The graphs represent the means±SEM of 3 independent experiments (*p<0.05, **p<0.01, and ***p<0.001 with respect to the control AT).
(§3) The Lipofectamine™ 2000 system (Invitrogen, USA) was used to treat cells with the different aptamers. To prepare the DNA-lipofectamine complex, lipofectamine and DNA were separately diluted in opti-MEM (Gibco, USA) and left to incubate at room temperature for 5 minutes. They were then mixed to form lipofectamine-DNA complexes and incubated for 20 minutes at room temperature. Finally, the mixture was added to the cells that had been washed twice with antibiotic-free medium to prevent the interference thereof with lipofectamine. The cells were incubated at 37° C. for 5 hours, after which the reagent was removed and a complete medium was added.
(§4) MTT activity. The cells were seeded in 96-well plates and after having been transfected, the culture medium was removed and 100 μL/well of MTT at 1 mg/ml in culture medium were added. The plates were incubated for 90 minutes in an incubator with a moisture-saturated environment at 37° C. and 5% CO2/[…] and 100 μL/well of a lysis solution (10% SDS and 10 mM HCl) were added for dissolving the crystals. After 48 hours, the reduction of MTT was determined by means of spectrophotometry in Infinite F200 (TECAN, Switzerland) at 540 nm.
(§5) The results were expressed as the percentage of viability with respect to the control or in absorbance units.
For orientation: Tetrazolium assays rely on reduction of a dye to a coloured formazan, in cell work by metabolically active cells.

The subject of data set [3] is MCF7 cells. Described as above. Format: cell-based, human. Here is the method: as §1, §2, §3, §4, §5

For orientation: GI50 means the concentration that inhibits growth by half. Read a low GI50 as greater sensitivity of the cells. As to “5′TGGGGTGGGCGGGCGGGGGTGGGGGTGGT-3′ (DNA, backbone and methylation of C not given here; further chemistry not fully specified) [apMNKQ2]”, the “invasion of 4T1 cells” value in data set [1] was “significantly decrease”. Further, the concentration for 50% growth inhibition (GI50) in data set [2] (MDA-MB-231, MTT activity at 48 hours, 0 to 500 nM) was determined as 144 nM; in data set [3] (MCF7, MTT activity at 48 hours, 0 to 500 nM), 42 nM. The “cell proliferation (MTT activity) reduced to” value in data set [2] (MDA-MB-231, aptamer 250 nM, 48 hours after transfection) amounted to 36%; in data set [3] (MCF7, aptamer 250 nM, 48 hours after transfection), 51%.
